Target: T1, Recombinant Rat Protein Tyrosine Phosphatase 1B (rPTP1B) (Rattus norvegicus, UniProt P20417)
T1 construct: laboratory of Dr. Barry Goldstein, Thomas Jefferson University (obtained from, not a commercial purchase)
T1 sequence (P20417 1-432): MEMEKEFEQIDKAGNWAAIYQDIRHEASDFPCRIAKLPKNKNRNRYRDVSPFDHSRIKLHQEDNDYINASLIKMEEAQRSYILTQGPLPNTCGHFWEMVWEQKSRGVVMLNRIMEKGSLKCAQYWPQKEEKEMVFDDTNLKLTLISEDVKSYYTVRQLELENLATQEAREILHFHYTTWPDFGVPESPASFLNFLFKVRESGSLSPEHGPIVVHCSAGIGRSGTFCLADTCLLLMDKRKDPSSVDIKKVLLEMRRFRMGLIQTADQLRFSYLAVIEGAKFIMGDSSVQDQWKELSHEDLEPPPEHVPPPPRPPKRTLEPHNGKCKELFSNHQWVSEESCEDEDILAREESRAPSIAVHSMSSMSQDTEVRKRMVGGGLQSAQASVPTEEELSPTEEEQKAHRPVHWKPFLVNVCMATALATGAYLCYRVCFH
Test: Inhibition of recombinant rat PTP1B (rPTP1B) activity using p-nitrophenylphosphate as substrate
Format: biochemical
Details: p-nitrophenyl phosphate substrate, pH 7.4, 37° C., 30 min; for inhibition at 25 µM: pH 7.4, All compounds administered at 25 μM; for % inhibition: All compounds administered at 25 μM
Protocol: Inhibition of Recombinant Rat Protein Tyrosine Phosphatase 1B (rPTP1B) Activity Using p-nitrophenylphosphate as a Substrate.
Measurement of pNPPase Activity.
The reaction is started by the addition of p-nitrophenyl phosphate and after 30 minutes at 37° C., the reaction is terminated by adding 1 ml of 0.1 N NaOH. […] The samples are read at 410 nm in a spectrophotometer and are evaluated based on a calibration curve of p-nitrophenol standard solution.
Compounds were screened robotically at a single concentration of ~25 μM. The results are expressed as percent of control, in that the amount of p-nitrophenol formed in the compound treated samples (nmol/minute/mg protein) is compared to the amount (nmol/minute/mg protein) formed in the untreated samples. p-Nitrophenylphosphatase activity is also determined in each experiment and is expressed per minute per mg protein.

For `CCCCCCCC/C=C\CCCCCCCC(=O)Nc1nc(CC(=O)O)cs1` [Example 1, 2-[((Z)-1-Oxo-9-octadecenyl)amino]-4-thiazoleacetic Acid], the inhibition at 25 µM was 93.4%.

In the case of `CCCCCCCC/C=C/CCCCCCCC(=O)Nc1nc(CC(=O)O)cs1` [Example 2, 2-[((E)-1-Oxo-9-octadecenyl)amino]-4-thiazoleacetic Acid], the “% inhibition” value (25 µM) is reported as 93.9%.

`CCCCCCCC/C=C/CCCCCCCC(=O)Nc1nc(CC(=O)O)cs1` [Example 3] was tested, and the “% inhibition” value (25 µM) was 58.16%.

Work on `CCCCCCCCC#CCCCCCCCC(=O)Nc1nc(CC(=O)O)cs1` [Example 4] yielded an inhibition at 25 µM of 84.8%.

For `CCCCCCCCCCC/C=C\CCCCC(=O)Nc1nc(CC(=O)O)cs1` [Example 5], the inhibition at 25 µM was 95%.

In the case of `CCCCCC/C=C\CCCCCCCC(=O)Nc1nc(CC(=O)O)cs1` [Example 6, 2-[((Z)-1-Oxo-9-hexadecenyl)amino]-4-thiazoleacetic Acid], the inhibition at 25 µM is reported as 93.8%.

Work on `CCCCCC/C=C/CCCCCCCC(=O)Nc1nc(CC(=O)O)cs1` [Example 7, 2-[((E)-1-Oxo-9-hexadecenyl)amino]-4-thiazoleacetic Acid] yielded an inhibition at 25 µM of 83.8%.

`CCCCCC/C=C/CCCCCCCCCC(=O)Nc1nc(CC(=O)O)cs1` [Example 8, 2-[((E)-1-Oxo-11-octadecenyl)amino]-4-thiazoleacetic Acid] gave an inhibition at 25 µM of 96.6%.

`CC/C=C\C/C=C\C/C=C\CCCCCCCC(=O)Nc1nc(CC(=O)O)cs1` [Example 9, 2-[((Z,Z,Z)-1-Oxo-9,12,15-octadecatrienyl)amino]-4-thiazoleacetic Acid] was tested, and the inhibition at 25 µM was 92.4%.

`[Na+].[Na+].[Na+].[O]=[V]([O-])([O-])[O-]` [Na3 VO4, reference compound] was tested, and the “% inhibition” value was 86.3%.

From patent publication US6281234A, “(2-Acylaminothiazole-4-yl)acetic acid derivative” (American Home Products Corporation, priority 1999, dated 2001)
